Each compound was assayed against T1, Free fatty acid receptor 4 (Homo sapiens, UniProt Q5NUL3) (assay: GPR120 pERK AlphaScreen SureFire Assay: The human and mouse GPR120-mediated intracellular phosphorylated ERK assays were also established using CHO-K1 cells stably transfected with the short form of human or mouse GPR120 receptor. Cells were cultured in growth medium consisting of F-12 media (Invitrogen Cat. #11765) with 5% Charcoal/Dextran FBS (Invitrogen Cat. #12676-029) and 500 μg/mL GENETICIN® (Life Technologies Cat. #10131-027). Cells were cryo preserved at a concentration of 3×10^6 cells/mL, in 70% F-12, 20% Charcoal/Dextran FBS and 10% DMSO, and frozen in liquid nitrogen at a low passage number.For the pERK assay, 3×10^6 cells/mL cryopreserved human and mouse cells were thawed rapidly in a 37° C. water bath and added to a T-225 flask containing 50 mL growth medium. The flasks were placed in a tissue culture incubator overnight (37° C., 5% CO2). The next day, cells were harvested with trypsin (Gibco Cat. #25300-054), resuspended in serum-containing growth medium and counted using a Cellometer and volume adjusted to a concentration of 0.5×10^6 cells/mL. Cells were plated into 384-well clear bottom tissue culture plates (BD Cat. #353962) at 50 μL/well, for a density of 25,000 cells/well using a MULTIDROP® and incubated for 16-18 hours (overnight) at 37° C. with 5% CO2. The next day, cells were washed once with 50 μL of PBS without Ca++/Mg++ (Gibco Cat. #14190-036) and serum starved in 25 μL of F-12 media without any serum or antibiotics for 2 hours at 37° C.).
T1 sequence (Q5NUL3 whole entry): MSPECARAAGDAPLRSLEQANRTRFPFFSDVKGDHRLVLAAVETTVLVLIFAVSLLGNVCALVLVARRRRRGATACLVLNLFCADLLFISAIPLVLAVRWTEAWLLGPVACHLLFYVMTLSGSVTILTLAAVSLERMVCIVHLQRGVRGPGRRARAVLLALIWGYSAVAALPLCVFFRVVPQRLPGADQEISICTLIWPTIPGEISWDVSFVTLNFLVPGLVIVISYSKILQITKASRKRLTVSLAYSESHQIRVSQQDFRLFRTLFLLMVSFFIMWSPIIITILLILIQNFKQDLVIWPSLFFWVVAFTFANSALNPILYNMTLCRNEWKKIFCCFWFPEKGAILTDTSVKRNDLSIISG
Type: cell-based

Row | Compound | EC50 [nM]
1 | O=C(O)CCCCc1ccc(N2CCCCC(Oc3ccc(F)cc3)C2)cc1 (stereo not given) | 3550
2 | O=C(O)CCCCc1ccc(N2CCCC(Oc3ccccc3)C2)cc1 (stereo not given) | 420
3 | O=C(O)COCCc1ccc(N2CCCC(Oc3ccccc3)C2)cc1 (stereo not given) | 2420
4 | O=C(O)CCCCc1ccc(C2CCCC(Nc3ccccc3)C2)cc1 (stereo not given) | 3030
5 | O=C(O)CCCCc1ccc(N2CCC[C@@H](Oc3ccccc3)C2)cc1 | 780

Source: ChEMBL document CHEMBL5727173, “Phenyl-(aza)cycloalkyl carboxylic acid GPR120 modulators” (2019)
